Reference: patent US9149056B2, “Compositions and methods relating to carotenoids” (The Iams Company, priority 2011, dated 2015)

Tests used:
[1] = system: Caco-2 human intestinal cells; assay type: in vitro ADME; conditions: Caco-2, 18 h
Method: The interactions among beta-carotene (B), lutein (L), and astaxanthin (A) were examined using a Caco-2 cell model.
Caco-2 human intestinal cells were grown and maintained on transwell inserts (3.0 μm pores) according to protocol in Failla M L., Chitchumroonchokchai C. (2005) In vitro models as tools for screening the relative bioavailabilities of provitamin A carotenoids in foods. HarvestPlus Technical Monograph Series 3. 32 p. www.harvestplus.org/pdfs/tech03.pdf. Cultures were used at 21 days post-confluency (dpc).
The stock synthetic micelles (SM) containing either β-carotene (B), lutein (L), or astaxanthin (A) was prepared as described by Chitchumroonchokchai et al. (2004).
Treated cells were incubated in humidified environment of 95% air, 5% CO2 at 37° C. for 18 hours before spent medium in apical chamber (AP) and basolateral medium (BL) were collected. All samples were frozen at −80° C. under nitrogen until analysis. Carotenoid analysis in media and cells were quantified as described by Chitchumroonchokchai (See Chitchumroonchokchai C., Schwartz S J., Failla M L. Assessment of lutein bioavailability from meals and supplement using simulated digestion and Caco-2 human intestinal cells. J Nutr. 2004; 134:2280-2286). Protein content of cells was determined by the bicinchoninic acid assay (Pierce—www.piercenet.com/files/1296 as8.pdf). […]

[2] = system: Caco-2 cells; assay type: in vitro ADME; conditions: human, Caco-2, 4 h
Source text: An in vitro digestion coupled with intestinal culture model was developed to mimic the in vivo absorption of carotenoids. It is important to note that absorption as determined by in vitro digestion is highly correlated with data derived by sampling small intestinal luminal contents from human subjects fed carotenoid rich vegetables and bioavailability data from published human studies.
The interactions among beta-carotene (B), lutein (L), and astaxanthin (A) or astaxanthin ester (AE) were examined using the coupled simulated digestion/Caco-2 cell model. Cellular carotenoids after four hour incubation with micelles generated during simulated digestion of carotenoid-rich oil are presented in Table 2 below.
Simulated digestion: Non-fat yogurt (2.7 g) was homogenized in 10 mL 120 mM salt solution. The mixture was transferred to 50 mL glass test tube. Carotenoid rich oil was carefully added for each reaction (6 replicates per test oil), and total volume of oil was adjusted to 300 μL using soybean oil. The procedure for the simulated digestion followed the standard protocol (See Failla M L., Chitchumroonchokchai C. (2005) In vitro models as tools for screening the relative bioavailabilities of provitamin A carotenoids in foods. HarvestPlus Technical Monograph Series 3. 32 p. www.harvestplus.org/pdfs/tech03.pdf), except that reactions contained pancreatic enzymes and bile extract. […] After completing gastric and small intestinal digestion, an aliquot (9 ml.) of digesta was centrifuged at 12,000×g, 4° C. for 45 min. to isolate aqueous fraction containing micellar carotenoids from residual undigested materials. The aqueous fraction was passed through syringe filter (0.22 μm) to determine carotenoids that partitioned into either aqueous or micellar phase. Aliquots of digesta and aqueous fraction were stored at −20° C. for a maximum of one week before extraction. Beta-carotene and lutein was quantified according to Chitchumrronchokchai et al. (See Chitchumroonchokchai C., Schwartz S J., Failla M L. Assessment of lutein bioavailability from meals and supplement using simulated digestion and Caco-2 human intestinal cells. J Nutr. 2004; 134:2280-2286), and astaxanthin was measured as described in Lin W C et al. (Lin W C, Chien J T, Chen B H. Determination of carotenoids in spear shrimp shells (Parapenaeopsis hardwickii) by liquid chromatography. J Agric Food Chem. 2005 Jun. 29; 53(13):5144-9).
Cell uptake of carotenoids from micelles generated during digestion of oil enriched with individual carotenoids or mixtures of carotenoids: Caco-2 cells (HTB37; passages 25-28) obtained from ATCC ([…]) at passage 19 were maintained in 6-well plastic dishes. The cells were cultured in complete DMEM plus 15% heat inactivated FBS during replication phase. […]

| Structure (SMILES) | % Increase in Carotenoid Cellular Uptake Compared to Single Carotenoid, B [1] [%] | % Carotenoid Cellular Uptake, B [2] [%] | % Increase in Carotenoid Cellular Uptake, B [2] [%] | % Increase in Carotenoid Cellular Uptake Compared to Single Carotenoid, L [1] [%] | % Carotenoid Cellular Uptake, L [2] [%] | % Increase in Carotenoid Cellular Uptake, L [2] [%] |
| --- | --- | --- | --- | --- | --- | --- |
| CC1=C(/C=C/C(C)=C/C=C/C(C)=C/C=C/C=C(C)/C=C/C=C(C)/C=C/C2=C(C)CCCC2(C)C)C(C)(C)CCC1 [Beta-carotene, beta-carotene] | 0.00 | 5.70 | 0.00 |  |  |  |
| CC1=C[C@H](O)CC(C)(C)[C@H]1/C=C/C(C)=C/C=C/C(C)=C/C=C/C=C(C)/C=C/C=C(C)/C=C/C1=C(C)C[C@@H](O)CC1(C)C [Lutein, lutein] |  |  |  | 0.00 | 6.02 | 0.00 |
